Each structure is given as a SMILES string.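 Briefly, cells in 96-well plates were exposed to five compound concentrations for 48 h, and endpoints were estimated by linear interpolation. Definition used: TGI = concentration required for complete inhibition of growth.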 Where a SMILES comes first, the peptide text is derived from it. The star is where a group is joined. Cbz = O=C(OCc1ccccc1)*; NHNH2 = NN*

Some test systems named below: 786-0 renal; HT29 colon; NCI-H460 lung; HOP-92 NSCLC; CAKI-1 renal; SK-MEL-2 melanoma; MOLT-4 leukemia; EKVX NSCLC; MDA-MB-435; M14 melanoma; UO-31 renal.
What all share (assay): DTP human tumour cell line panel, 48 h

For `O=C(O)C(CO)NC(=O)n1c2ccccc2c2ccccc21` (centres undefined), the TGI with 786-0 renal, in the assay on HT29 colon, in the assay on NCI-H460 lung, in the assay on HOP-92 NSCLC, with CAKI-1 renal and in the assay with SK-MEL-2 melanoma was > 100 µM each time. For the same compound, the TGI in the assay with MOLT-4 leukemia and in the assay on EKVX NSCLC was > 100 µM in each case.

For the compound `C=C1CC(C)(c2ccc(Nc3nc4ccccc4c4occc34)cc2)OC1=O` (centres undefined), the TGI in the assay on 786-0 renal turned out to be 3.79 µM; in the assay with HT29 colon, 12.6 µM; in the assay on MDA-MB-435, 6.09 µM; in the assay with NCI-H460 lung, 51.5 µM; in the assay with HOP-92 NSCLC, 12.6 µM; with CAKI-1 renal it was 40.3 µM. Also, the results for the TGI with EKVX NSCLC and in the assay on M14 melanoma were 24.5 µM and 4.73 µM, respectively.

Regarding `COc1cc2c(/C=C3/C(=O)Nc4ccccc43)c(Cl)[nH]c2cc1C`, the TGI in the assay on 786-0 renal turned out to be 13.9 µM; in the assay on HT29 colon, 1.05 µM; with NCI-H460 lung, 15.7 µM; in the assay with HOP-92 NSCLC, 26.6 µM; in the assay on CAKI-1 renal, 23.6 µM; in the assay on SK-MEL-2 melanoma, 25.4 µM. Moreover, the total growth inhibition concentration (TGI) with UO-31 renal was 20.7 µM; with MOLT-4 leukemia, 14.2 µM; in the assay on EKVX NSCLC it was 25.1 µM; with M14 melanoma, 17 µM.

`Cc1nn(-c2cc(Cl)ccc2[N+](=O)[O-])c(C)c1Cl`: the concentration for total growth inhibition (TGI) in the assay with 786-0 renal, in the assay with HT29 colon, with MDA-MB-435, in the assay with NCI-H460 lung, with CAKI-1 renal and in the assay with SK-MEL-2 melanoma was > 100 µM throughout. The TGI in the assay with UO-31 renal, in the assay on MOLT-4 leukemia, in the assay with EKVX NSCLC and with M14 melanoma was > 100 µM in each case.

On to `CC1(C)CNC(=O)C2(C=NC(C)(C)CNC(=O)C3(C=N1)CCCO3)CCCO2` (centres undefined), for which the TGI in the assay on 786-0 renal, with HT29 colon, in the assay with MDA-MB-435, with HOP-92 NSCLC, in the assay with CAKI-1 renal and in the assay with MOLT-4 leukemia was > 10 µM each time. The TGI in the assay with EKVX NSCLC and with M14 melanoma was > 10 µM throughout.

Take `O=C1C(Cl)N(c2ccccc2[N+](=O)[O-])C1c1c[nH]c2ccccc12` (centres undefined): the TGI in the assay on HT29 colon, with NCI-H460 lung, in the assay on HOP-92 NSCLC, in the assay on SK-MEL-2 melanoma, in the assay with UO-31 renal and in the assay on MOLT-4 leukemia was > 100 µM each time. Further, the TGI in the assay with EKVX NSCLC and with M14 melanoma was > 100 µM throughout.

Consider `COC(=O)CC(NC(=O)OCc1ccccc1)C(=O)NC(CC(=O)OC)C(=O)NC(CC(=O)OC)C(=O)NC(CC(=O)OC)C(=O)NC(CC(=O)OC)C(=O)NC(CC(=O)OC)C(=O)NN` (centres undefined) (Cbz-D(OMe)D(OMe)D(OMe)D(OMe)D(OMe)D(OMe)-NHNH2; configuration not given here), for which the total growth inhibition concentration (TGI) in the assay with 786-0 renal, in the assay on HT29 colon, in the assay on MDA-MB-435, in the assay with NCI-H460 lung, with HOP-92 NSCLC and in the assay with SK-MEL-2 melanoma was > 100 µM throughout. Further, the TGI in the assay on UO-31 renal, in the assay on MOLT-4 leukemia and with M14 melanoma was > 100 µM in each case.

In the case of `O=C1NC2OC(CO)C(O)C(O1)C2O` (centres undefined), the TGI in the assay with 786-0 renal, in the assay with HT29 colon, in the assay with NCI-H460 lung, in the assay with HOP-92 NSCLC, in the assay on CAKI-1 renal and with SK-MEL-2 melanoma was > 100 µM each time. Moreover, the TGI in the assay on UO-31 renal, in the assay on MOLT-4 leukemia, with EKVX NSCLC and in the assay on M14 melanoma was > 100 µM throughout.

For `COc1ccc2c(c1)CC1=C(O2)c2ccc(OC)cc2OC1`, the TGI in the assay with 786-0 renal is 50.8 µM; in the assay with HT29 colon it was 72.9 µM; with MDA-MB-435 it was 47.5 µM; with CAKI-1 renal, 37.1 µM; in the assay with SK-MEL-2 melanoma, 81.6 µM; in the assay on UO-31 renal it was > 100 µM. The TGI in the assay on MOLT-4 leukemia is > 100 µM; in the assay on EKVX NSCLC, 52.5 µM; with M14 melanoma, 37.3 µM.

Turning to `CCN1CCC(O)(C(C(=O)O)c2ccccc2)CC1` (centres undefined), the TGI in the assay on HT29 colon, with MDA-MB-435, in the assay with NCI-H460 lung, in the assay on CAKI-1 renal, in the assay on SK-MEL-2 melanoma and with UO-31 renal was > 100 µM in each case. For the same compound, the TGI with EKVX NSCLC and in the assay with M14 melanoma was > 100 µM throughout.

As for `CCOC(=O)C(CC#Cc1ccc(C#CCC(NC(C)=O)C(=O)OCC)cc1)NC(C)=O` (centres undefined), the TGI with 786-0 renal, with HT29 colon, in the assay with MDA-MB-435, in the assay with NCI-H460 lung, with CAKI-1 renal and with SK-MEL-2 melanoma was > 100 µM in each case. Besides, the TGI in the assay on UO-31 renal, in the assay with MOLT-4 leukemia, in the assay on EKVX NSCLC and in the assay on M14 melanoma was > 100 µM each time.

Take `COc1c(Br)cc(CC(N)=O)c(O)c1Br`: the TGI with HT29 colon, in the assay with HOP-92 NSCLC, in the assay on CAKI-1 renal, in the assay on SK-MEL-2 melanoma, in the assay with UO-31 renal and in the assay on MOLT-4 leukemia was > 100 µM throughout. Moreover, in the assay on EKVX NSCLC, the TGI was > 100 µM.

Regarding `Cn1c([O-])nc(-n2cc[n+](C)c2)cc1=O`, the TGI in the assay on 786-0 renal, with HT29 colon, in the assay with MDA-MB-435, in the assay with NCI-H460 lung, with HOP-92 NSCLC and with SK-MEL-2 melanoma was > 100 µM throughout. The TGI with UO-31 renal, in the assay on MOLT-4 leukemia, in the assay on EKVX NSCLC and with M14 melanoma was > 100 µM each time.

For `COC(=O)C1=Nc2c(C)nn(-c3ccccc3)c2N=C(c2ccc([N+](=O)[O-])cc2)C1`, the TGI in the assay with 786-0 renal, in the assay with HT29 colon, in the assay on MDA-MB-435, with HOP-92 NSCLC, with CAKI-1 renal and in the assay with MOLT-4 leukemia was > 10 µM in each case. In addition, in the assay on M14 melanoma, the TGI is > 10 µM.

Turning to `NC(N)=Nc1ncccc1[N+](=O)[O-]`, the TGI in the assay with HT29 colon, in the assay with NCI-H460 lung, with HOP-92 NSCLC, with CAKI-1 renal, in the assay on SK-MEL-2 melanoma and with UO-31 renal was > 100 µM throughout. Further, the TGI with MOLT-4 leukemia was > 100 µM.

For the origin of these results see PubChem BioAssay (NCI).
